# Test results reported in ChEMBL document CHEMBL3886468, “Cyclohexylamine derivatives having β2 adrenergic agonist and M3 muscarinic antagonist activities” (2016).
# Target: Muscarinic acetylcholine receptor M3 (Homo sapiens, UniProt P20309)
# Assay: Muscarinic Receptor Binding Assay: The study of binding to human muscarinic M1, M2, M3, M4 and M5 receptors was performed using commercial membranes (Perkin Elmer) prepared from CHO-K1 cells. Radioligand binding experiments were conducted in 96 polypropylene well plates in a total volume of 200 ul. All reagents were dissolved in assay binding buffer (PBS with calcium and magnesium, SIGMA), except compounds that were dissolved in DMSO 100%. Non-specific binding (NSB) was measured in the presence of 1 uM atropine. [3H]-NMS was used as the radioligand at a concentration of 1 nM for M2, M3 and M5 and 0.3 nM for M1 and M4. [3H]-NMS and antagonists were incubated with membranes that express human muscarinic receptors M1, M2, M3, M4 and M5 at concentrations of 8.1, 10, 4.9, 4.5 and 4.9 ug/well, respectively. After an incubation period of two hours with gentle shaking, 150 ul of the reaction mix were transferred to 96 GF/C filter plates (Millipore), previously treated with wash buffer.
# Type: cell-based
# Chain of Muscarinic acetylcholine receptor M3 (P20309 whole entry): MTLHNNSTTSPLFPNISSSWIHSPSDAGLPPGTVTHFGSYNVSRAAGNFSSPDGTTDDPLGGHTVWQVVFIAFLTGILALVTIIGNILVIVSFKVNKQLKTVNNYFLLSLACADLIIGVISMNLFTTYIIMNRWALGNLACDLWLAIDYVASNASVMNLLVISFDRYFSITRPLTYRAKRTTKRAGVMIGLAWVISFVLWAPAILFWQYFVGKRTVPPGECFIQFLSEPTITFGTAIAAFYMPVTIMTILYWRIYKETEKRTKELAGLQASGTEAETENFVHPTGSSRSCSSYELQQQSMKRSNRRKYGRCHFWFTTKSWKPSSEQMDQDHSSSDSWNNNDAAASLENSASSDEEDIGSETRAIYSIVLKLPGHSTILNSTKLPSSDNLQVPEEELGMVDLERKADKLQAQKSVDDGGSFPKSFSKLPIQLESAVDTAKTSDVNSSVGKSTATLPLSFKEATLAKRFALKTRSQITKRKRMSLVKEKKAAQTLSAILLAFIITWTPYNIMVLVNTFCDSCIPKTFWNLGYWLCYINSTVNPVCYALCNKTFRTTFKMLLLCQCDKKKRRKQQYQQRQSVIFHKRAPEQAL
structure (smiles),measurement,value
CN(CCCn1nnc2cc(CNC[C@H](O)c3ccc(O)c4c3OCC(=O)N4)ccc21)[C@H]1CC[C@H](OC(=O)[C@](O)(c2cccs2)C2CCCC2)CC1,IC50,0.4 nM
